# Assays:
# Caco-2 monolayers [1] = test: Transepithelial resistance (TER) drop induced by high PA fecal supernatants on Caco-2 monolayers; format: cell-based
# Procedure: (§1) Apical addition of high PA fecal supernatants on Caco-2 monolayers caused a drop in transepithelial resistance (TER) which was not seen with low PA supernatant (FIG. 16A). […] Since pancreatic elastases were found as the most abundant proteases driving the fecal PA, their effects on barrier were tested.
# Caco-2 monolayers [2] = test: Texas red dextran flux across Caco-2 monolayers; format: cell-based
# Procedure: as §1
molecule,measurement,setting,value
CC(C)CC(=O)N1CCN(C(=O)CCCCCN)CC1 [ENMD1068],effect of high PA fecal supernatant on TER (in words),"Caco-2 monolayers [1]; FIG. 18, n=5/group, p<0.05",blocks
same,inhibition of TER drop induced by high PA fecal supernatants,"Caco-2 monolayers [1]; preincubation of Caco-2 monolayer, 150 μM",45%
CC(C)C[C@H](NC(=O)[C@H]1O[C@@H]1C(=O)O)C(=O)NCCCCN=C(N)N [E64],inhibition of fecal supernatant induced TER drop,"Caco-2 monolayers [1]; apical preincubation, 0.1 mM E64, Caco-2 monolayers, FIG. 17A",not
same,reduction of increased paracellular (Texas red dextran) flux caused by high PA supernatants,"Caco-2 monolayers [2]; apical preincubation, 0.1 mM E64, Caco-2 monolayers, FIG. 17B",not
"porcine pancreatic elastase: porcine pancreatic elastase, protease tested for effects on barrier","Texas red dextran flux, 24 hour basolateral concentration","Caco-2 monolayers [2]; 1 mM, Caco-2 monolayers, control 0.1 μg/mL, n=4/group, p<0.05",5.9 µg/mL
Trypsin,effect on barrier,Caco-2 monolayers [2],had an effect on barrier

# Source: patent US20260248863A1, “METHODS AND MATERIALS FOR TREATING GASTROINTESTINAL DISORDERS” (Mayo Foundation for Medical Education and Research, priority 2020, published 2026)
